The results in this text go back to patent publication US20240117005A1, “NOVEL BICYCLIC PEPTIDES” (THE COUNCIL OF THE QUEENSLAND INSTITUTE OF MEDICAL RESEARCH, priority 2021, published 2024).

The assay deals with CSV, ABCB5, EGFR, FOXQ1, E-Cadherin in MDA-MB-231 cells. Kind of assay: High resolution digital pathology of mesenchymal/epithelial markers, MDA-MB-231. It counts as cell-based, human. How it is done:
To examine the signature of CD8, CSV, EGFR, ABCB5, FOXQ1, commercial PD-L1-28-8, nuclear PD-L1, cytoplasmic PDL1 in MDA-MB-231 TNBC cells/TNBC brain cancer clone cells (untreated or treated with bicyclic inhibitors targeting nuclear PD-L1-PTM1). MDA-MB-231/MDA-MB-231-Br cells were permeabilised by incubating with 0.5% Triton X-100 for 15 min, blocked with 1% BSA in PBS and were probed with either CSV (Mouse host), CD8 (mouse host), EGFR (Rabbit host), ABCB5 (Goat Host), ALDH1A (Rabbit Host), NODAL (Goat Host), nuclear PDL1 (rabbit host), cytoplasmic PD-L1 (rabbit host) visualized with a donkey anti-rabbit AF 488, anti-mouse AF 568, donkey anti-goat 647. Cover slips were mounted on glass microscope slides with ProLong Glass Antifade reagent (Life Technologies). Protein targets were localised by digital pathology laser scanning microscopy. Single 0.5 μm sections were obtained using a ASI Digital pathology microscope using 100× oil immersion lens running ASI software. The final image was obtained by averaging four sequential images of the same section. Digital images were analyzed using automated ASI software (Applied Spectral Imaging, Carlsbad, CA) to determine the distribution and intensities automatically with automatic thresholding and background correction of the average nuclear fluorescence intensity (NFI), allowing for the specific targeting of expression of proteins of interest. Digital images were also analysed using ImageJ software (ImageJ, NIH, Bethesda, MD, USA) to determine the total cell fluorescence or cell surface only fluorescence for non-permeabilised cells. Digital images were analysed using ImageJ software (ImageJ, NIH, Bethesda, MD, USA) to determine either the Total Nuclear Fluorescent Intensity (TNFI), the Total Cytoplasmic Fluorescent Intensity (TCFI). ImageJ software with automatic thresholding and manual selection of regions of interest (ROIs) specific for cell nuclei was used to calculate the Pearson's co-efficient correlation (PCC) for each pair of antibodies. PCC values range from: −1=inverse of co-localisation, 0=no co-localisation, +1=perfect co-localisation. The Mann-Whitney nonparametric test (GraphPad Prism, GraphPad Software, San Diego, CA) was used to determine significant differences between datasets.
All breast cancer cell lines used were sourced from ATCC. MDA-MB-231 or MDB-MB-231-Br cell lines were maintained and cultured in DMEM (Invitrogen) supplemented with 10% FBS, 2 mM L-glutamine, and 1% PSN. […]
MDA-MB-231 were permeabilized and treated with either vehicle control or, DL-2 (current stock), or linear PDL1 (PDL1-L1). […] Significant differences are calculated as one-way ANOVA Kruskal-Wallis test comparison to vehicle control. […]

Entries after “also recorded” stand apart in the source; their conditions may differ. No end group written: not given here. *: point of attachment. Myristyl = CCCCCCCCCCCCCC*

Regarding `CCCCCCCCCCCCCC(=O)NC(C)C(=O)NC1CSCc2cc3cc(c2)CSC[C@H](NC(=O)[C@H](Cc2ccccc2)NC(=O)[C@H](C(C)CC)NC(=O)[C@H](Cc2ccccc2)NC(=O)[C@H]([C@@H](C)O)NC(=O)C(CC(C)C)NC1=O)C(=O)N[C@@H](CCCNC(C)=N)C(=O)N[C@@H](CC(C)C)C(=O)N[C@@H](CCCNC(=N)N)C(=O)N[C@@H](CCCCN)C(=O)NCC(=O)N[C@@H](CCCNC(=N)N)C(=O)NC(C(=O)N[C@@H](CCSC)C(=O)NC(CCSC)C(=O)N[C@@H](CC(=O)O)C(=O)NC(C(=O)N[C@@H](CCCCN)C(=O)NC(CCCCN)C(=O)O)C(C)C)CSC3` (mixture of isomers) [DL-2], the “expression of the epithelial marker E-Cadherin” value (MDA-MB-231) is given as “able to induce expression”. For the same molecule, where the note is “MDA-MB-231, vs vehicle control”, the “expression of mesenchymal marker CSV (CFI)” value is “inhibit” and the “mesenchymal stem-like resistant protein markers (CSV, ABCB5, EGFR, FOXQ1)” value is listed as “significantly inhibit”.

As for “LTFIFRLRKGRMMDVKK (Myristyl-LTFIFRLRKGRMMDVKK) [PDL1-L1, Myristyl- linear peptide, prototype]”, the “expression of mesenchymal marker CSV (CFI)” value (MDA-MB-231, vs vehicle control, listed as linear PDL1 peptide) is on record as “reduce expression of CSV with far less significance; also recorded: able to reduce expression of CSV”.
